# Measured values: PubChem BioAssay (NCI)
#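 All cell lines were grown in 96-well plates and treated with compound for 48 hours. TGI is the concentration that stops growth completely.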
# Columns and labels:
# Assay in all cases: DTP human tumour cell line panel, 48 h
# UO-31 renal = tested on: UO-31 renal
# EKVX NSCLC = tested on: EKVX NSCLC
# HOP-92 NSCLC = tested on: HOP-92 NSCLC
# ACHN renal = tested on: ACHN renal
# OVCAR-8 ovarian = tested on: OVCAR-8 ovarian
# NCI-H226 lung = tested on: NCI-H226 lung
# SNB-19 CNS = tested on: SNB-19 CNS
# HCC-2998 colon = tested on: HCC-2998 colon
# OVCAR-4 ovarian = tested on: OVCAR-4 ovarian
# SF-539 CNS = tested on: SF-539 CNS
# 786-0 renal = tested on: 786-0 renal
SMILES,TGI (UO-31 renal) [µM],TGI (EKVX NSCLC) [µM],TGI (HOP-92 NSCLC) [µM],TGI (ACHN renal) [µM],TGI (OVCAR-8 ovarian) [µM],TGI (NCI-H226 lung) [µM],TGI (SNB-19 CNS) [µM],TGI (HCC-2998 colon) [µM],TGI (OVCAR-4 ovarian) [µM],TGI (SF-539 CNS) [µM],TGI (786-0 renal) [µM]
CCCCOP1(=O)C=C(C)C(=C(Cl)Cl)C(C)=C1 (stereo not given),45.3,> 100,4.88,23.6,> 54.2,13,> 77.9,52.3,> 91.1,83.3,53
O=C1C=C(Br)c2c(Br)sc(Br)c21,10.3,37.3,7.64,15.3,12.1,98.8,35.7,28.1,34.4,18.2,> 19.6
COC(=O)/C=C(/C(=O)OC)c1c(C)c(C)c2c(C)cc(C)cc(C)c1-2,> 100,> 100,> 100,> 100,> 100,58.9,> 100,> 100,> 100,> 100,> 100
COc1cc(CC2c3cc(OC)c(OC)cc3CCN2C)c(Oc2cc3c(cc2OC)-c2c(O)c(OC)cc4c2C(C3)N(C)CC4)cc1OC (stereo not given),36.1,53.1,32.6,49.8,44.5,66.2,57.4,31,90.7,30.3,84.4
O=C1c2c(nc3ccccc3c2-c2ccccc2)CN1Nc1ccccn1,51.6,> 100,> 79.4,> 100,> 87.1,> 89,> 100,> 100,> 100,99.5,> 93.1
COC(=O)/C=C1\CCC(C)(C(=O)NS(=O)(=O)c2ccc(C)cc2)C1(C)C (stereo not given),> 100,> 100,> 100,> 100,> 100,> 100,> 100,> 100,> 100,> 100,> 100
Cc1cccc(C2=NC(C)(C)C(C)(C)N=C2c2cccc(C)n2)n1,> 100,> 100,> 100,> 100,> 100,> 100,> 100,> 100,> 100,> 100,> 100
Oc1[nH]c2ccccc2c1N=Nc1nc(-c2ccc(Cl)c(Cl)c2)cs1,> 100,> 100,> 100,> 100,> 100,> 100,> 100,> 100,> 100,> 100,> 100
O=[N+]([O-])c1ccc(N=Nc2c(O)c(S(=O)(=O)O)cc3cc(S(=O)(=O)O)ccc23)cc1,> 100,> 100,> 100,> 100,> 100,> 100,> 100,> 100,> 100,> 100,> 100
Nc1ccccc1N/C=C\C(=O)C(Cl)(Cl)Cl,62.6,30.5,47.8,35.1,> 100,> 100,> 100,31.7,44.4,> 100,28.3
